pIC50: −log10 of the molar value.
Tests used:
[1] = molecular target: T1, monoamine oxydase (Rattus norvegicus, UniProt P21396); assay: inhibition of the activity of the monoamine oxydase in vitro on homogenates of rat brain (serotonin as substrate); assay type: biochemical; settings: serotonin as substrate at 480 μM, read-out: Test in vitro IC50
T1 construct: in vitro on homogenates of rat brain; from tissue; host or cells: rat brain homogenate
T1 sequence (P21396 1-526): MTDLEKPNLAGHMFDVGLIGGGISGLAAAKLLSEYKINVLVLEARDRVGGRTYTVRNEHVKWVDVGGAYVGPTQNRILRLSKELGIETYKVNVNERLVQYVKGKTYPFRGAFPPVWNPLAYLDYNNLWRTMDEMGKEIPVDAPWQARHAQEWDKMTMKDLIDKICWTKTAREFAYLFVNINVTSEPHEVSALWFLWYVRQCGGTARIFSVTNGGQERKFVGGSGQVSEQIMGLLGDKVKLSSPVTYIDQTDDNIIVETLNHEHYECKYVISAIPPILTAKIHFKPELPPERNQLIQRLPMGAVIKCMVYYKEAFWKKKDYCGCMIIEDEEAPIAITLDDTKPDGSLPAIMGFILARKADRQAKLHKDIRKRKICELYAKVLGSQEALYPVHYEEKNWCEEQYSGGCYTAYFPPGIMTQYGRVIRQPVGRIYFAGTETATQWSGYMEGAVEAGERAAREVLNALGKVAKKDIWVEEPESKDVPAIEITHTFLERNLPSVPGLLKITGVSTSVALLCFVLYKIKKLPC
Method: in vitro on homogenates of rat brain, by measuring the concentration of the product inhibiting by 50% (IC50) the activity of the monoamine oxydase utilising serotonin as substrate at 480 μM, according to the method described by M. STROLIN BENEDETTI. T. BOUCHER and C. J. FOWLER in Naunyn--Schmiedebergs Archiv. of Pharm. (1983) 323, 315-320;

[2] = test system: effects of serotonin (precursor hydroxy-5 tryptophan, 5-HTP); assay: potentiation of hydroxy-5 tryptophan (5-HTP): generalised trembling or stereotypies in rats; settings: Rattus norvegicus, oral, 1 h before 120 mg/kg i.p. 5-HTP, generalised trembling or stereotypies in 50% of the animals, read-out: Test in vivo ED50
Method: in vivo by determining in rats the dose of the product which, administered orally, causes in 50% of the animals (ED50) the appearance of generalised trembling or stereotypies (finger-tapping as on a piano, movements of the head) following the intraperitoneal administration 1 h after the first treatment of a dose of 120 mg/kg of hydroxy-5 tryptophan (5-HTP) [M. JALFRE, B. BUCHER, A. COSTON, G. MOCQUET, R. D. PORSOLT, Arch. Int. Pharmacodyn., (1982), 259, 194-221].

[3] = LD50 in mice, oral; settings: mouse, in vivo

Row | Compound | pIC50 [1] | ED50 [2] | LD50 [3]
1 | COc1ccc2c(c1)CC[C@H]1[C@H](CO)OC(=O)N21 (relative stereo) [MD 280387] | 7.12 |  | 
2 | COC[C@H]1OC(=O)N2c3ccccc3CC[C@@H]12 (relative stereo) [MD 200682, cis methoxymethyl-3 tetrahydro-3,3a,4,5 1H oxazolo [3,4-a] quinoline-one-1] | 7.05 | 2.3 mg/kg | 
3 | O=C1O[C@H](CO)[C@@H]2CCc3ccccc3N12 (relative stereo) [MD 200504, cis hydroxymethyl-3 tetrahydro-3,3a,4,5 1H-oxazolo [3,4-a] quinoline-one-1] |  | 7.8 mg/kg | 
4 | C=C[C@@H]1OC(=O)N2c3ccccc3CC[C@@H]12 (relative stereo) [MD 200503, ethenyl-3 tetrahydro-3,3a,4,5 1H-oxazolo [3,4-a] quinoline-one-1] | 7.24 | 20 mg/kg | 
5 | O=C1O[C@H](CO)[C@@H]2Cc3ccccc3N12 (relative stereo) [MD 200602] | 5.55 |  | 
6 | COc1ccc2c(c1)CC[C@H]1[C@@H](CO)OC(=O)N21 (relative stereo) [MD 280386, cis hydroxymethyl-3 methoxy-7 tetrahydro-3,3a,4,5 1H-oxazino [3, 4a] quinoline-one-1] | 7.72 |  | 
7 | CNC[C@H]1OC(=O)N2c3ccc(OC)cc3CC[C@@H]12 (relative stereo) [MD 370026] |  |  | 263 mg/kg
8 | COC[C@@H]1OC(=O)N2c3ccc(OC)cc3CC[C@@H]12 (relative stereo) [MD 280449] | 8.22 |  | 1120 mg/kg
9 | CNC[C@@H]1OC(=O)N2c3ccc(OC)cc3CC[C@@H]12 (relative stereo) [MD 370027] |  | 5.8 mg/kg | 
10 | C=C[C@H]1OC(=O)N2c3ccccc3CC[C@@H]12 (relative stereo) [MD 200502, ethenyl-3 tetrahydro-3,3a,4,5 1H-oxazolo [3,4-a] quinoline-one-1] | 6.30 |  | 
11 | O=C1O[C@@H](CO)[C@@H]2Cc3ccccc3N12 (relative stereo) [MD 200718] | 5.06 |  | 

Further lines, with some results ahead:

Row | pIC50 [1] | Compound | ED50 [2] | LD50 [3]
12 | 6.00 | COc1ccc2c(c1)CC[C@H]1[C@@H](CN)OC(=O)N21 (relative stereo) [MD 370024, cis aminomethyl-3 methoxy-7 tetrahydro-3,3a,4,5 1H-oxazolo [3,4-a] quinoline-one-2] |  | 
13 | 8.05 | COC[C@H]1OC(=O)N2c3ccc(OC)cc3CC[C@@H]12 (relative stereo) [MD 280448] | 1.8 mg/kg | 
14 | 7.54 | C=C[C@@H]1OC(=O)N2c3ccc(OC)cc3CC[C@@H]12 (relative stereo) [MD 280404, ethenyl-3 methoxy-7 tetrahydro-3,3a, 4,5 1H-oxazolo [3.4-a] quinoline-one-1] | 11 mg/kg | 
15 | 5.80 | COc1ccc2c(c1)CC[C@H]1[C@H](CN)OC(=O)N21 (relative stereo) [MD 370025] |  | 
16 | 7.01 | O=C1O[C@@H](CO)[C@@H]2CCc3ccc(Cl)cc3N12 (relative stereo) [MD 370335] |  | 
17 | 7.10 | O=C1O[C@H](CO)[C@@H]2CCc3ccc(Cl)cc3N12 (relative stereo) [MD 370336] |  | 
18 | 5.85 | C[C@@H]1OC(=O)N2c3ccccc3CC[C@@H]12 (relative stereo) [MD 280430, trans methyl-3 tetrahydro-3,3a,4,5 1 H-oxazolo [3,4-a] quinoline-one-1] | 105 mg/kg | 

— patent publication US5001129A, “Oxazoloquinoline compounds and therapeutic application thereof” (Delalande S.A., priority 1987, dated 1991)
